The values below come from patent publication US11517516B2, “Use of ester derivative of tryptophan as deodorant and/or perfume agent” (L'oreal, priority 2014, dated 2022).

Some results are limits rather than exact numbers.

Test [1] is described as follows: ex-vivo olfactory evaluation test on incubated sweat. Conditions: for effect on the unpleasant odor: compared to the negative control (incubated sweat alone), concentrations as tested; for comparison of anti-odor activity, compound 1 versus ethyl N-acetyl-L-tryptophanate: equivalent dose, several concentrations (0.1%, 0.5%, 1%). Here is the method: The deodorant activity was evaluated in the ex-vivo olfactory evaluation test, on incubated sweat.
Tryptophan ethyl ester hydrochloride (compound 1 of the example A-1) was evaluated at various concentrations in a pool of fresh sweat.
The samples were prepared in 10-ml headspace screw bottles, they are incubated at 35° C. for 24 h under stirring. A sample of sweat with 1 mg of anhydrous aluminum hydroxychloride (ACH) in 1 ml of sweat (i.e. 0.1%) is incubated in order to serve as a positive reference (little odor) and a sample of sweat alone is incubated to serve as a negative reference (unpleasant odor).
The samples after incubation are evaluated olfactively by a panel of several people in a blind test on the headspace bottles. The incubated samples of sweat containing ACH and sweat alone are evaluated at the same time in order to be used respectively as […].
3 parameters are evaluated on a scale from 0 to 10: • The residual of the unpleasant odor with 0 for not very unpleasant (positive reference) and 10 for very unpleasant odor (negative reference). • The total power of the odor with 0 for little power and 10 for very powerful. • The pleasantness of the odor with 0 for not very pleasant and 10 for very pleasant.

The subject of test [2] is Corynebacterium xerosis CIP 5216. Kind of test: killing test: number of viable micro-organisms after contact. Format: cell-based. Conditions: 0.5%; for viable micro-organisms, CFU/g of preparation: 35° C., inoculum 1.4E7. The source says: The anti-microbial activity of Tryptophan ethyl ester hydrochloride (compound 1) was valuated in vitro on Corynebacterium xerosis (killing test, quantity of micro-organisms killed). Purpose of test: Quantitative determination of the activity of a cosmetic starting material with respect to Corynebacterium xerosis, a micro-organism involved in the phenomena linked to underarm odor. This micro-organism is placed in optimum growth conditions. Protocol: The model strain used is: Corynebacterium xerosis CIP 5216 (bacteria) The strain is placed into contact with the starting material to be tested in a suitable liquid culture medium. The dilutions of the compounds under evaluation are performed in agar at 1:1000, making it possible, for dispersible compounds under evaluation, to do away with the use of a solvent which could introduce bias in the evaluation of the compounds. In parallel, a growth control, in which the starting material to be tested is replaced with diluent, is prepared in the same conditions. The samples are placed in a rotating incubator at 35° C. and maintained under stirring for the entire duration of the test. After 2, 6 and 24 hours of contact, the number of viable micro-organisms remaining in the mixture is evaluated. The results are expressed as a logarithm of the number of micro-organisms per milliliter of mixture.

Where [3] appears, read: Table 5, 0.5% in incubated sweat, scale 0 to 10.
The mark [4] stands for this setting: incubated sweat, release of odorous volatile molecules.
[5] abbreviates: Table 2, 0.1% in sweat, scale 0 to 10, panel of 6.
Where [6] appears, read: Table 2, 0.5% in sweat, scale 0 to 10, panel of 6.
Setting [7] is: Table 2, 1% in sweat, scale 0 to 10, panel of 6.
The mark [8] stands for this setting: Table 1, 0.1% in sweat, 35° C. 24 h, scale 0 to 10, panel of 6.
Setting [9] is: Table 3, positive reference, 1 mg in 1 ml of sweat (0.1%), scale 0 to 10.
Where [10] appears, read: Table 4, positive reference, 1 mg in 1 ml of sweat (0.1%), scale 0 to 10.
Setting [11] is: Table 5, positive reference, 1 mg in 1 ml of sweat (0.1%), scale 0 to 10.
[12] abbreviates: Table 3, 0.5% in incubated sweat, scale 0 to 10, panel of 6.
Where [13] appears, read: Table 4, 0.3% in incubated sweat, scale 0 to 10.
Where [14] appears, read: Table 1, 0.5% in sweat, scale 0 to 10, panel of 6.
The mark [15] stands for this setting: Table 1, 1% in sweat, scale 0 to 10, panel of 6.

Turning to `N[C@@H](Cc1c[nH]c2ccccc12)C(=O)OCc1ccccc1` [Compound 7, Tryptophan benzyl ester], in test [1] (setting [3]), the “Pleasantness of the odor” value was 3.7, the Power is recorded as 4.3 and the Residual unpleasant odor was determined as 3. Moreover, the “effect on the unpleasant odor” value in test [1] is “effect on the reduction of the unpleasant odor”. In addition, the “Pleasantness of the odor” value in test [1] (setting [4]) is on record as “generate a pleasant odor”.

In the case of `CCOC(=O)[C@H](Cc1c[nH]c2ccccc12)NC(C)=O` [Compound 2, ethyl N-Acetyl-L-tryptophanate, reference compound], the Power was 6.2 in test [1] (setting [5]), 6.8 in test [1] (setting [6]) and 6.6 in test [1] (setting [7]). The Residual unpleasant odor in test [1] (setting [5]) is recorded as 6.8; in test [1] (setting [6]), 7.5; in test [1] (setting [7]), 7. Also, the “comparison of anti-odor activity, compound 1 versus ethyl N-acetyl-L-tryptophanate” value in test [1] (incubated sweat) is reported as “not as effective as Tryptophan ethyl ester hydrochloride”.

For `CC(C)(C)OC(=O)[C@@H](N)Cc1c[nH]c2ccccc12.Cl` [Compound 8, Tryptophan tertiobutyl ester hydrochloride], in test [1] (setting [3]), the “Pleasantness of the odor” value worked out at 5.7, the Power came out at 4 and the Residual unpleasant odor was 1.7. The “effect on the unpleasant odor” value in test [1] is listed as “effect on the reduction of the unpleasant odor”. Further, the “Pleasantness of the odor” value in test [1] (setting [4]) was “generate a pleasant odor”.

As to “anhydrous aluminum hydroxychloride [ACH, reference compound]”, the Power in test [1] (setting [8]) turned out to be 1.6; in test [1] (setting [5]) it was 1.6; in test [1] (setting [9]), 0.8; in test [1] (setting [10]), 2.7; in test [1] (setting [11]), 2. Further, the Residual unpleasant odor came out at 0.5 in test [1] (setting [8]); 0.5 in test [1] (setting [5]); 0.3 in test [1] (setting [9]); 2.7 in test [1] (setting [10]); 1.7 in test [1] (setting [11]). The “Pleasantness of the odor” value was 4 in test [1] (setting [9]), 3.7 in test [1] (setting [10]) and 5 in test [1] (setting [11]).

As to `CC/C=C\CCOC(=O)[C@@H](N)Cc1c[nH]c2ccccc12.Cl` [Compound 4, Tryptophan cis-3-hexenyl ester hydrochloride], in test [1] (setting [12]), the “Pleasantness of the odor” value came out at 6, the Power was found to be 7 and the Residual unpleasant odor was determined as 2.5. Also, in test [1], the “effect on the unpleasant odor” value is reported as “effect of reducing the unpleasant odor”. In addition, the “Pleasantness of the odor” value in test [1] (setting [4]) is recorded as “contribute to the pleasantness of the odor”.

As for `CC/C=C\CCOC(=O)[C@@H](N)Cc1c[nH]c2ccccc12` [Compound 3, Tryptophan cis-3-hexenyl ester], in test [1] (setting [12]), the “Pleasantness of the odor” value was found to be 7.8, the Power came to 6.8 and the Residual unpleasant odor is given as 1. In test [1], the “effect on the unpleasant odor” value was “effect of reducing the unpleasant odor”. For the same molecule, in test [1] (setting [4]), the “Pleasantness of the odor” value is “contribute to the pleasantness of the odor”.

In the case of `C=CC(C)CCCC(C)(C)OC(=O)[C@@H](N)Cc1c[nH]c2ccccc12` (stereo partly drawn) [Compound 5, Tryptophan dihydromyrcenyl ester], in test [1] (setting [12]), the “Pleasantness of the odor” value stood at 5.8, the Power is recorded as 5.5 and the Residual unpleasant odor was 2.5. The “effect on the unpleasant odor” value in test [1] is given as “effect of reducing the unpleasant odor”. In addition, the “Pleasantness of the odor” value in test [1] (setting [4]) is recorded as “contribute to the pleasantness of the odor”.

Turning to `CCCCCCCCOC(=O)[C@@H](N)Cc1c[nH]c2ccccc12.Cl` [Compound 6, Tryptophan octyl ester hydrochloride], the “Pleasantness of the odor” value is given as 7 in test [1] (setting [13]), 7.7 in test [1] (setting [3]) and “generates a pleasant odor” in test [1] (setting [4]). The values for the Power in test [1] (setting [13]) and in test [1] (setting [3]) were 7 and 6.3, respectively. In addition, the Residual unpleasant odor in test [1] (setting [13]) and in test [1] (setting [3]) was 0.3 in each case. The “effect on the unpleasant odor” value in test [1] is listed as “effect of reducing the unpleasant odor”.

For `CCOC(=O)[C@@H](N)Cc1c[nH]c2ccccc12.Cl` [Compound 1, L-tryptophan ethyl ester chlorhydride], the “anti-microbial activity on C. xerosis” value in test [2] (in terms of the growth control) is listed as “excellent anti-microbial activity”. Also, the “viable micro-organisms, CFU/g of preparation” value was 4.6E3 CFU/g of preparation in test [2] (2 hours of contact), 4.0E1 CFU/g of preparation in test [2] (6 hours of contact) and <20 CFU/g of preparation in test [2] (24 hours of contact). The results for the “reduction in terms of the growth control” value in test [2] (after 2 h of contact), in test [2] (after 6 h of contact) and in test [2] (after 24 h of contact) were 3.3 Log Units, 5.4 Log and “greater than or equal to 6.6 Log”, respectively. Moreover, the Power was determined as 3.2 in test [1] (setting [8]); 2.8 in test [1] (setting [14]); 1.4 in test [1] (setting [15]); 3.2 in test [1] (setting [5]); 2.8 in test [1] (setting [6]); 1.4 in test [1] (setting [7]). In addition, the Power in test [1] (setting [13]) is on record as 3; in test [1] (setting [3]), 3.3. Besides, the Residual unpleasant odor came out at 3.4 in test [1] (setting [8]); 3.2 in test [1] (setting [14]); 0.6 in test [1] (setting [15]); 3.4 in test [1] (setting [5]); 3.2 in test [1] (setting [6]); 0.6 in test [1] (setting [7]). For the same molecule, the Residual unpleasant odor was found to be 1.7 in test [1] (setting [13]) and 1.3 in test [1] (setting [3]). The “Pleasantness of the odor” value in test [1] (setting [13]) is on record as 5.3; in test [1] (setting [3]), 5.7. Also, the “effect on the unpleasant odor” value in test [1] is on record as “clear decrease in the unpleasant odor”. The “comparison of anti-odor activity, compound 1 versus ethyl N-acetyl-L-tryptophanate” value in test [1] (incubated sweat) is “superiority”; in test [1] (incubated sweat, listed as Tryptophan ester hydrochloride), “better anti-odor activity than the Ethyl N-acetyl-L-tryptophanate”.
